From PMC12299463, “Cladolosides of Groups S and T: Triterpene Glycosides from the Sea Cucumber Cladolabes schmeltzii with Unique Sulfation; Human Breast Cancer Cytotoxicity and QSAR” (Marine Drugs, 2025) come the findings set out here.

Where a name gives a salt, the structure may show the parent alone. Read-outs that look alike come from different tables or passages of the source.

For data set [1], the system named is T-47D human breast cancer cells. The experiment in a line: cells. In kind it is cell-based. The settings on record: for Selectivity Index (SI), T-47D: ratio of IC50 for healthy (MCF-10A) and T-47D cells.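 As to all read-outs here: cell viability read as absorbance of formazan dye at 570 nm, each experiment run in triplicate.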
For data set [2], the system named is human erythrocytes. The experiment in a line: Hemolytic activity against human erythrocytes. The settings on record: for ED50, Erythrocytes (hemolytic activity): 1 h at 37 °C. In kind it is cell-based. How it is done:
A total of 450 g of human blood (B(III) Rh+) was used to obtain erythrocytes by centrifuging three times for 5 min with phosphate-buffered saline (PBS) (pH 7.4) at 4 °C on a centrifuge LABOFUGE 400R (Heraeus, Hanau, Germany). Ice-cold PBS (pH 7.4) was used for resuspension of erythrocyte residue to a final optical density of 1.5 at 700 nm. Then, 20 µL of tested compound solutions or control (cucumarioside A0-1 [15]) were added to 180 µL of erythrocyte suspension in V-bottom 96-well plates and incubated for 1 h at 37 °C. After centrifugation (900 g, 10 min, laboratory centrifuge LMC-3000 (Biosan, Riga, Latvia)), 100 µL of supernatant was transferred into new flat plates. The values of erythrocyte lysis were measured on microplate photometer Multiskan FC (Thermo Fisher Scientific, Waltham, MA, USA) at λ = 570 nm as hemoglobin concentration in supernatant. […] All the experiments were carried out in triple repetitions, p < 0.05.

Data set [3] deals with MDA-MB-231 triple-negative breast cancer cells. As to the kind of experiment: cells. The settings on record: for Selectivity Index (SI), MDA-MB-231: ratio of IC50 for healthy (MCF-10A) and MDA-MB-231 cells. The data set is classed as cell-based, human.
For data set [4], the system named is MCF-7 human breast cancer cells. The experiment in a line: cells. In kind it is cell-based.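 Also: IC50 values, including those behind the selectivity ratio, derive from formazan absorbance at 570 nm, tested in triplicate.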
A short description of data set [5]: in vitro. Conditions: human. The data set is classed as cell-based, human.
Data set [6] deals with MCF-10A non-tumor mammary epithelial cell line. As to the kind of experiment: in vitro. In kind it is cell-based, human.
The mark [7] stands for this setting: Homo sapiens, T47D, read-out: Cytotoxicity, IC50, T-47D.
Setting [8] is: Homo sapiens, MDA-MB-231, read-out: Cytotoxicity, IC50, MDA-MB-231.
[9] abbreviates: Homo sapiens, MCF7, read-out: Cytotoxicity, IC50, MCF-7.
[10] abbreviates: MTT assay, T-47D, read-out: Cytotoxicity, IC50, T-47D.
Where [11] appears, read: MTT assay, MDA-MB-231, read-out: Cytotoxicity, IC50, MDA-MB-231.
The mark [12] stands for this setting: MTT assay, MCF-7, read-out: Cytotoxicity, IC50, MCF-7.
Setting [13] is: MTT assay, MCF-10A, read-out: Cytotoxicity, IC50, MCF-10A.

Broadly, the IC50 is the point on the concentration scale where inhibition reaches its midpoint. Consider `CO[C@@H]1[C@@H](O)[C@H](O[C@@H]2[C@@H](O)[C@H](O[C@H]3[C@H](O)[C@@H](O)[C@H](O[C@H]4[C@H](O[C@H]5CC[C@]6(C)C7=CCC89C(=O)O[C@@](C)([C@@H](CCC(C)C)OC(C)=O)[C@H]8[C@@H](OC(C)=O)C[C@@]9(C)[C@@H]7CC[C@H]6C5(C)C)OC[C@@H](O[C@@H]5OC[C@@H](O)[C@H](O)[C@H]5O)[C@@H]4O)O[C@@H]3C)OC[C@H]2O)O[C@H](COS(=O)(=O)O)[C@H]1O` (stereo partly drawn) [Cladoloside S1 (2), 3β-O-{6-O-sodium sulfate-3-O-methyl-β-D-glucopyranosyl-(1→3)-β-D-xylopyranosyl-(1→4)-β-D-quinovopyranosyl-(1→2)-[(1→4)-β-D-xylopyranosyl]-β-D-xylopyranosyl}-16S,22R-diacetoxyholost-9-en], for which the IC50 in data set [1] (setting [7]), in data set [3] (setting [8]), in data set [4] (setting [9]) and in data set [5] was more than 20 µM each time. Further, in data set [2], the “Hemolytic (membranolytic) activity, in words” value (“Hemolytic … in words” below) is “moderately active”. Further, in data set [2], the “ED50, Erythrocytes (hemolytic activity)” value amounted to 4.78 ± 0.30 µM.
On to `C=C(C)CC[C@@H](OC(C)=O)[C@]1(C)OC(=O)C23CC=C4[C@@H](CC[C@H]5C(C)(C)[C@@H](O[C@@H]6OC[C@@H](O[C@@H]7OC[C@@H](O)[C@H](O)[C@H]7O)[C@H](O)[C@H]6O[C@@H]6O[C@H](C)[C@@H](O[C@@H]7OC[C@@H](O)[C@H](O[C@@H]8O[C@H](COS(=O)(=O)O)[C@@H](O)[C@H](OC)[C@H]8O)[C@H]7O)[C@H](O)[C@H]6O)CC[C@]45C)[C@]2(C)C[C@H](OC(C)=O)[C@@H]31` (stereo partly drawn) [Cladoloside S (1), 3β-O-{6-O-sodium sulfate-3-O-methyl-β-D-glucopyranosyl-(1→3)-β-D-xylopyranosyl-(1→4)-β-D-quinovopyranosyl-(1→2)-[(1→4)-β-D-xylopyranosyl]-β-D-xylopyranosyl}-16S,22R-diacetoxyholosta-9,25-diene], for which the half-maximal inhibitory concentration (IC50) in data set [1] (setting [7]) is 14.8 ± 0.71 µM; in data set [3] (setting [8]), 13.2 ± 1.08 µM; in data set [4] (setting [9]), more than 20 µM; in data set [5], more than 20 µM. Moreover, the “Selectivity Index (SI), T-47D” value in data set [1] is recorded as more than 1.35. In data set [2], the “Hemolytic … in words” value was “moderately active”. In data set [2], the “ED50, Erythrocytes (hemolytic activity)” value amounted to 3.40 ± 0.25 µM. Further, the “Selectivity Index (SI), MDA-MB-231” value in data set [3] was more than 1.51.
Consider `CO[C@@H]1[C@@H](O)[C@H](O[C@@H]2[C@@H](O)[C@H](O[C@@H]3CO[C@@H](O[C@H]4CC[C@]5(C)C6=CCC78C(=O)O[C@@](C)([C@@H](CCC(C)C)OC(C)=O)[C@H]7[C@@H](OC(C)=O)C[C@@]8(C)[C@@H]6CC[C@H]5C4(C)C)[C@H](O[C@@H]4O[C@H](C)[C@@H](O[C@@H]5OC[C@@H](O)[C@H](O[C@@H]6O[C@H](CO)[C@@H](O)[C@H](OC)[C@H]6O)[C@H]5O)[C@H](O)[C@H]4O)[C@H]3O)O[C@H](C)[C@H]2O)O[C@H](CO)[C@H]1O` (some centres unmarked) [Cladoloside H1 (26), Cladoloside H1], for which the IC50 in data set [1] (setting [10]) is 13.2 ± 0.72 µM; in data set [3] (setting [11]), 2.47 ± 0.32 µM; in data set [4] (setting [12]), 15.9 ± 1.14 µM; in data set [6] (setting [13]), more than 20 µM. In addition, the “ED50, Erythrocytes (hemolytic activity)” value in data set [2] was 0.21 ± 0.02 µM. In addition, the “Toxicity to normal mammary cells MCF-10A, in words” value in data set [6] (MCF-10A) was “non-toxic”.
On to `C=C(C)CC[C@@H](O)[C@]1(C)OC(=O)C23CC=C4[C@@H](CC[C@H]5C(C)(C)[C@@H](O[C@@H]6OC[C@@H](O[C@@H]7O[C@H](CO)[C@@H](O)[C@H](O[C@@H]8O[C@H](CO)[C@@H](O)[C@H](OC)[C@H]8O)[C@H]7O)[C@H](O)[C@H]6O[C@@H]6O[C@H](C)[C@@H](O[C@@H]7OC[C@@H](O)[C@H](O[C@@H]8O[C@H](COS(=O)(=O)[O-])[C@@H](O)[C@H](OC)[C@H]8O)[C@H]7O)[C@H](O)[C@H]6O)CC[C@]45C)[C@]2(C)C[C@H](OC(C)=O)[C@@H]31.[Na+]` (some centres unmarked) [Cladoloside K2 (32), cladoloside K2], for which the IC50 in data set [1] (setting [10]) was 14.1 ± 0.91 µM; in data set [3] (setting [11]), 6.81 ± 0.73 µM; in data set [4] (setting [12]), more than 20 µM; in data set [6] (setting [13]), 14.5 ± 1.07 µM. The “Selectivity Index (SI), T-47D” value in data set [1] amounted to 1.03. Also, the “ED50, Erythrocytes (hemolytic activity)” value is recorded as 4.63 ± 0.41 µM in data set [2] (listed as K2 (32)) and 4.63 µM in data set [2] (listed as cladoloside K2 (32)).
Turning to `CO[C@@H]1[C@@H](O)[C@H](O[C@@H]2[C@@H](O)[C@H](O[C@H]3[C@H](O)[C@@H](O)[C@H](O[C@H]4[C@H](O[C@H]5CC[C@]6(C)C7=CCC89C(=O)O[C@@](C)(CCC=C(C)C)[C@H]8C(=O)C[C@@]9(C)[C@@H]7CC[C@H]6C5(C)C)OC[C@@H](O)[C@@H]4O)O[C@@H]3C)OC[C@H]2O)O[C@H](CO)[C@H]1O` (some centres unmarked) [A4 (8), cladoloside A4], the IC50 in data set [1] (setting [10]), in data set [3] (setting [11]), in data set [4] (setting [12]) and in data set [6] (setting [13]) was more than 20 µM each time. In addition, the “Hemolytic … in words” value in data set [2] is on record as “weakest effect from the series”. In data set [2], the “ED50, Erythrocytes (hemolytic activity)” value amounted to 13.60 ± 0.70 µM.
As to `C=C(C)CCC[C@]1(C)OC(=O)C23CC=C4[C@@H](CC[C@H]5C(C)(C)[C@@H](O[C@@H]6OC[C@@H](O[C@@H]7O[C@H](CO)[C@@H](O)[C@H](O[C@@H]8O[C@H](COS(=O)(=O)[O-])[C@@H](O)[C@H](OC)[C@H]8O)[C@H]7O)[C@H](O)[C@H]6O[C@@H]6O[C@H](C)[C@@H](O[C@@H]7OC[C@@H](O)[C@H](O[C@@H]8O[C@H](CO)[C@@H](O)[C@H](OC)[C@H]8O)[C@H]7O)[C@H](O)[C@H]6O)CC[C@]45C)[C@]2(C)CC(=O)[C@@H]31.[Na+]` (some centres unmarked) [Cladoloside L1 (33), Cladoloside L1], the IC50 in data set [1] (setting [10]) turned out to be 9.03 ± 0.81 µM; in data set [3] (setting [11]), 13.4 ± 1.08 µM; in data set [4] (setting [12]), 12.7 ± 1.01 µM; in data set [6] (setting [13]), 17.9 ± 1.12 µM. Also, the “Selectivity Index (SI), T-47D” value in data set [1] is on record as 1.98. In addition, the “Hemolytic … in words” value in data set [2] is given as “strong hemolytics”. In addition, the “ED50, Erythrocytes (hemolytic activity)” value in data set [2] amounted to 0.20 ± 0.02 µM. Also, the “Selectivity Index (SI), MDA-MB-231” value in data set [3] stood at 1.34. In data set [4] (ratio of IC50 for healthy (MCF-10A) and MCF-7 cells), the “Selectivity Index (SI), MCF-7” value amounted to 1.41.
Turning to `C=C(C)CC[C@@H](OC(C)=O)[C@]1(C)OC(=O)C23CC=C4[C@@H](CC[C@H]5C(C)(C)[C@@H](O[C@@H]6OC[C@@H](O)[C@H](O)[C@H]6O[C@@H]6O[C@H](C)[C@@H](O[C@@H]7O[C@H](CO)[C@@H](O)[C@H](O[C@@H]8O[C@H](CO)[C@@H](O)[C@H](OC)[C@H]8O)[C@H]7O)[C@H](O)[C@H]6O)CC[C@]45C)[C@]2(C)C[C@H](OC(C)=O)[C@@H]31` (some centres unmarked) [A6 (10), cladoloside A6], the IC50 in data set [1] (setting [10]), in data set [3] (setting [11]), in data set [4] (setting [12]) and in data set [6] (setting [13]) was more than 20 µM each time. The “ED50, Erythrocytes (hemolytic activity)” value in data set [2] was found to be 3.43 ± 0.22 µM.
On to `C=C(C)CC[C@@H](OC(C)=O)[C@]1(C)OC(=O)C23CC=C4[C@@H](CC[C@H]5C(C)(C)[C@@H](O[C@@H]6OC[C@@H](O[C@@H]7O[C@H](CO)[C@@H](O)[C@H](O)[C@H]7O)[C@H](O)[C@H]6O[C@@H]6O[C@H](C)[C@@H](O[C@@H]7OC[C@@H](O)[C@H](O[C@@H]8O[C@H](COS(=O)(=O)[O-])[C@@H](O)[C@H](OC)[C@H]8O)[C@H]7O)[C@H](O)[C@H]6O)CC[C@]45C)[C@]2(C)C[C@H](OC(C)=O)[C@@H]31.[Na+]` (some centres unmarked) [I2 (29), cladoloside I2], for which the IC50 in data set [1], in data set [3], in data set [4] and in data set [6] was more than 20 µM each time. Further, the “ED50, Erythrocytes (hemolytic activity)” value stood at 4.24 ± 0.31 µM in data set [2] and 4.24 µM in data set [2] (listed as cladoloside I2 (29)).
